Measurements as given in patent US20230044787A1, “TRICYCLE DIHYDROIMIDAZOPYRIMIDONE DERIVATIVE, PREPARATION METHOD THEREOF, PHARMACEUTICAL COMPOSITION AND USE THEREOF” (priority 2019, published 2023).

Target: T1, Lp-PLA2 (Homo sapiens, UniProt Q13093)
T1 construct: aliquoted and thawed 40 μL of pooled human plasma was previously added; from tissue; host or cells: pooled human plasma
T1 sequence (Q13093 22-441): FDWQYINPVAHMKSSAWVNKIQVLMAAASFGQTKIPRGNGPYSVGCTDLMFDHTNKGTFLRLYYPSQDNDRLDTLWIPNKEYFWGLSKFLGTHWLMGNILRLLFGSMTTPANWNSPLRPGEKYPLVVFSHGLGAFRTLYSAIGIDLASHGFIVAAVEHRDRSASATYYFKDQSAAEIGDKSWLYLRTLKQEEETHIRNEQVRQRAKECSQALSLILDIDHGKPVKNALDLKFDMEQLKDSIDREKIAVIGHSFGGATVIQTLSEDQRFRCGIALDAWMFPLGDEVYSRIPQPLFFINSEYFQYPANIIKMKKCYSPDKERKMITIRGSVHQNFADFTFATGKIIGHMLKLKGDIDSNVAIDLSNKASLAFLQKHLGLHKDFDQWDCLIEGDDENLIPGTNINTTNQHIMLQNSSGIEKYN
Experiment: Lipoprotein-associated phospholipase A2 (Lp-PLA2) human plasma assay (Thio-PAF assay)
Assay type: biochemical
Conditions: Lp-PLA2 human plasma assay (Thio-PAF), pooled human plasma, 30-min pre-incubation at room temperature

| SMILES | IC50 [nM] |
| --- | --- |
| N#Cc1cc(COc2cc3n(c(=O)n2)C[C@]24CO[C@H](CN32)C4)ccc1Oc1ccnc(C(F)(F)F)c1 [Example 22, 5-((((3S,11aR)-9-oxo-3,4-dihydro-1H,9H,11H-3,11a-methanopyrimido[6′,1′:2,3]imidazo[5,1-c][1,4]oxazin-7-yl)oxy)methyl)-2-((2-(trifluoromethyl)pyridin-4-yl)oxy)benzonitrile] | 3 |
| CCC12CCCCN1c1cc(OCc3ccc(Oc4cccc(C(F)(F)F)c4)c(C#N)c3)nc(=O)n1C2 (centres unmarked) [Example 77, 5-(((9a-ethyl-1-oxo-6,7,8,9,9a,10-hexahydro-1H-pyrido[1′,2′:3,4]imidazo [1,2-c]pyrimidin-3-yl)oxy)methyl)-2-(3-(trifluoromethyl)phenoxy) benzonitrile] | 5.7 |
| CC12CCCCN1c1cc(OCc3ccc(F)c(F)c3)nc(=O)n1C2 (centres unmarked) [Example 74, 3-((3,4-difluorobenzyl)oxy)-9a-methyl-6,7,8,9,9a,10-hexahydro-1H-pyrido [1′,2′:3,4]imidazo[1,2-c]pyrimidin-1-one] | 22.3 |
| O=c1nc(OCc2cc(F)c(Oc3cccc(C(F)(F)F)c3)c(F)c2)cc2n1C[C@]13CO[C@H](CN21)C3 [Example 194, (3S,11aR)-7-((3,5-difluoro-4-(3-(trifluoro-methyl)phenoxy)benzyl)oxy)-3,4-dihydro-1H,9H,11H-3,11a-methanopyrimido[6′,1′:2,3] imidazo[5,1-c][1,4]oxazin-9-one] | 4 |
| O=c1nc(OCc2ccc(Oc3cccc(C(F)(F)F)c3)c(F)c2)cc2n1CC13CCC(CC1)N23 [Example 126, 3-((3-fluoro-4-(3-(trifluoromethyl)phenoxy)benzyl)oxy)-7,8-dihydro-1H,6H,9H-6,8a-ethanopyrrolo[1′,2′:3,4] imidazo[1,2-c]pyrimidin-1-one] | 5 |
| N#Cc1cc(Oc2ccc(COc3cc4n(c(=O)n3)C[C@]35CO[C@H](CN43)C5)cc2F)cc(C(F)(F)F)c1 [Example 12] | 4.3 |
| CN1C[C@]23C[C@H]1CN2c1cc(OCc2ccc(Oc4ccnc(C(F)(F)F)c4)c(F)c2)nc(=O)n1C3 [Example 171, (3S,11aS)-7-((3-Fluoro-4-((2-(trifluoromethyl)pyridin-4-yl)oxy)benzyl)oxy)-2-methyl-1,2,3,4-tetrahydro-9H,11H-3,11a-methanopyrazino[1′, 2′:3, 4]imidazo[1,2-c]pyrimidin-9-one] | 2.1 |
| COc1c(OCc2cc(F)c(F)c(F)c2)nc(=O)n2c1N1CC3CC1(C3)C2 [Example 151] | 5.7 |
| N#Cc1cc(COc2cc3n(c(=O)n2)C[C@@]24CO[C@@H](CN32)C4)ccc1Oc1ccnc(C(F)(F)F)c1 [Example 110, 5-((((3R,11aS)-9-oxo-3,4-dihydro-1H,9H,11H-3,11a-methanopyrimido[6′,1′:2,3]imidazo[5,1-c][1,4]oxazin-7-yl)oxy)methyl)-2-((2-(trifluoromethyl)pyridin-4-yl)oxy)benzonitrile] | 5.3 |
| O=c1nc(OCc2cc(F)c(Oc3cncc(C(F)(F)F)c3)c(F)c2)cc2n1C[C@@]13CO[C@@H](CN21)C3 [Example 29, (3R,11aS)-7-((3,5-difluoro-4-((5-(trifluoromethyl)pyridin-3-yl)oxy)benzyl)oxy)-3,4-dihydro-1H,9H,11H-3,11a-methanopyrimido[6′,1′:2,3] imidazo[5,1-c][1,4]oxazin-9-one] | 3.4 |
| O=c1nc(OCc2ccc(Oc3ccc(F)c(C(F)(F)F)c3)nc2)cc2n1CC13CCC(CC1)N23 [Example 49, 3-((6-(4-fluoro-3-(trifluoromethyl)phenoxy)pyridin-3-yl)methoxy)-7,8-dihydro-1H,6H,9H-6,8a-ethanopyrrolo[1′,2′:3,4] imidazo[1,2-c]pyrimidin-1-one] | 168 |
| O=c1nc(OCc2cc(F)c(Oc3ccnc(C(F)(F)F)c3)c(F)c2)cc2n1C[C@@]13CO[C@@H](CN21)C3 [Example 26, (3R,11aS)-7-((3,5-difluoro-4-((2-(trifluoromethyl)pyridin-4-yl)oxy)benzyl)oxy)-3,4-dihydro-1H,9H,11H-3,11a-methanopyrimido[6′,1′:2,3] imidazo[5,1-c][1,4]oxazin-9-one] | 5.5 |
| O=c1nc(OCc2ccc(Oc3ccnc(C(F)(F)F)c3)c(F)c2)c(C(F)(F)F)c2n1C[C@]13CO[C@H](CN21)C3 [Example 164, (3S,11aR)-7-((3-fluoro-4-((2-(trifluoromethyl)pyridin-4-yl)oxy)benzyl)oxy)-6-(trifluoromethyl)-3,4-dihydro-1H,9H,11H-3,11a-methanopyrimido[6′,1′:2,3] imidazo[5,1-c][1,4]oxazin-9-one] | 1.5 |
| O=c1nc(OCc2cc(F)c(Oc3ccc(C(F)(F)F)nc3)c(F)c2)cc2n1C[C@@]13CO[C@@H](CN21)C3 [Example 30, (3R,11aS)-7-((3,5-difluoro-4-((6-(trifluoromethyl)pyridin-3-yl)oxy)benzyl)oxy)-3,4-dihydro-1H,9H,11H-3,11a-methanopyrimido[6′,1′:2,3] imidazo[5,1-c][1,4]oxazin-9-one] | 6.8 |
| O=c1nc(OCc2ccc(Oc3ccnc(C(F)(F)F)c3)c(F)c2)cc2n1CC13CC(F)(CN21)C3 [Example 157, 7-fluoro-3-((3-fluoro-4-((2-(trifluoromethyl)pyridin-4-yl)oxy)benzyl)oxy)-7,8-dihydro-1H,6H,9H-7,8a-methanopyrrolo[1′,2′:3,4] imidazo[1,2-c]pyrimidin-1-one] | 3.9 |
| O=c1nc(OCc2ccc(Oc3ccc(Cl)c(C(F)(F)F)c3)c(F)c2)cc2n1CC13CC(CN21)C3 [Example 125, 3-((3-fluoro-4-(4-chloro-3-(trifluoromethyl)phenoxy)benzyl)oxy)-7,8-dihydro-1H,6H,9H-7,8a-methanopyrrolo[1′,2′:3,4] imidazo[1,2-c]pyrimidin-1-one] | 3 |
| O=c1nc(OCc2cc(F)c(Oc3cnc(C(F)(F)F)nc3)c(F)c2)cc2n1C[C@]13CO[C@H](CN21)C3 [Example 7, (3S,11aR)-7-((3,5-difluoro-4-((2-(trifluoromethyl)pyrimidin-5-yl)oxy)benzyl)oxy)-3,4-dihydro-1H,9H,11H-3,11a-methanopyrimido[6′,1′:2,3] imidazo[5,1-c][1,4]oxazin-9-one] | 2.5 |
| CN1C(=O)[C@]23C[C@H]1CN2c1cc(OCc2ccc(Oc4ccc(Cl)c(C(F)(F)F)c4)c(C#N)c2)nc(=O)n1C3 [Example 168] | 3.6 |
| O=c1nc(OCc2ccc(Oc3ccnc(C(F)F)c3)c(F)c2)cc2n1CC13CCC(CC1)N23 [Example 196] | 15.4 |
| O=c1nc(OCc2cc(F)c(Oc3ccnc(C(F)(F)F)c3)c(F)c2)cc2n1C[C@]13CO[C@H](CN21)C3 [Example 1] | 4.4 |
| N#Cc1cc(COc2cc3n(c(=O)n2)C[C@]24CO[C@H](CN32)C4)ccc1Oc1cccc(C(F)(F)F)c1 [Example 19, 5-((((3S,11aR)-9-oxo-3,4-dihydro-1H,9H,11H-3,11a-methanopyrimido[6′,1′:2,3]imidazo[5,1-c][1,4]oxazin-7-yl)oxy)methyl)-2-(3-(trifluoromethyl)phenoxy) benzonitrile] | 3.9 |
| O=c1nc(OCc2ccc(Oc3ccnc(C(F)(F)F)c3)c(F)c2)cc2n1C[C@@]13C[C@@H](CN21)N(C1CCC1)C3 [Example 177, (3S,11aS)-2-cyclobutyl-7-((3-fluoro-4-((2-(trifluoromethyl)pyridin-4-yl)oxy)benzyl)oxy)-1,2,3,4-tetrahydro-9H,11H-3,11a-methano-pyrazino[l′,2′:3,4]imidazo[1,2-c]pyrimidin-9-one] | 5.5 |
| O=c1nc(OCCc2ccc(Oc3cccc(C(F)(F)F)c3)cc2)cc2n1C[C@]13CO[C@H](CN21)C3 [Example 132, (3S,11aR)-7-(4-(3-(trifluoromethyl)phenoxy)phenethoxy)-3,4-dihydro-1H,9H,11H-3,11a-methanopyrimido[6′,1′:2,3] imidazo[5,1-c][1,4]oxazin-9-one] | 5.9 |
| CC12COCCN1c1cc(OCc3ccc(Oc4cccc(C(F)(F)F)c4)c(C#N)c3)nc(=O)n1C2 (centres unmarked) [Example 85] | 6.7 |
| CCC12CCCN1c1cc(OCc3ccc(Oc4cc(C#N)cc(C(F)(F)F)c4)c(F)c3)nc(=O)n1C2 (centres unmarked) [Example 65] | 12.1 |
| CC12COCCN1c1cc(OCc3cc(F)c(Oc4cncc(C(F)(F)F)c4)c(F)c3)nc(=O)n1C2 (centres unmarked) [Example 80, 7-((3,5-difluoro-4-((5-(trifluoromethyl)pyridin-3-yl)oxy)benzyl)oxy)-11a-methyl-3,4,11,11a-tetrahydro-1H,9H-pyrimido[6′,1′:2,3]imidazo [5,1-c][1,4]oxazin-9-one] | 3.3 |
| Cc1cc(Oc2ccc(COc3cc4n(c(=O)n3)CC35CCC(CC3)N45)cc2F)ccn1 [Example 120, 3-((3-fluoro-4-((2-methyl-pyridin-4-yl)oxy)benzyl)oxy)-7,8-dihydro-1H,6H,9H-6,8a-ethanopyrrolo[1′,2′:3,4] imidazo[1,2-c]pyrimidin-1-one] | 8.7 |
| O=c1nc(OCc2ccc(Oc3ccnc(OC(F)(F)F)c3)c(F)c2)cc2n1CC13CCC(CC1)N23 [Example 154, 3-((3-fluoro-4-((2-(trifluoromethoxy)pyridin-4-yl)oxy)benzyl)oxy)-7,8-dihydro-1H,6H,9H-6,8a-ethanopyrrolo[1′,2′:3,4] imidazo[1,2-c]pyrimidin-1-one] | 3.6 |
| O=c1nc(OCc2ccc(Oc3ccnc(OC(F)(F)F)c3)c(F)c2)cc2n1CC13CC(CN21)C3 [Example 153] | 4.1 |
